Drawing on US7494984B2, “Substituted imidazo[1,2-a]pyrimidines as HIV viral DNA integrase inhibitors” (priority 2005, dated 2009), this text covers IC50 for 13 molecules.

The test addresses T1, HIV-integrase (Human immunodeficiency virus type 1 group M subtype B, UniProt P12497).
T1 construct: Recombinant integrase (0.26 ng) was incubated with the beads
Put plainly: HIV-Integrase Inhibition Activity (SPA strand transfer assay). In kind it is biochemical. The settings on record: recombinant integrase, biotin labeled substrate DNA on SPA beads, P33 labeled target DNA; read-out: Activity (IC50 class, HIV-integrase inhibition). How it is done:
HIV-Integrase Inhibition Activity. To evaluate in-vitro activity against HIV-integrase, 5 pmole of biotin labeled substrate DNA was bound to 100 μg of Streptavidin coated PVT SPA beads (Amersham Pharmacia Biotech). Recombinant integrase (0.26 ng) was incubated with the beads for 90 min at 37° C. Unbound enzyme was removed by washing the complex followed by addition of inhibitors and 0.1 fmol of P33 labeled target DNA. The reaction was stopped by adding EDTA to a final concentration of 10 mM. Samples were counted in TopCountNXT (Packard) and the CPM was used as a measure of integration. The reaction condition was as described in A. Engelman and R. Craigie, J. Virol. 69, 5908-5911 (1995). The sequences of substrate and target DNA were described in Nucleic Acid Research 22,1121-1122 (1994). Activity equal to A refers to a compound having IC50=0.005 to 0.010 μM while B and C denote compounds having IC50=0.010 to 0.030 μM and IC50>0.030 μM respectively.
One may read the IC50 as the concentration needed to halve the response being measured. As to `CNC(=O)c1cc(F)ccc1CNC(=O)c1nc2n(c(=O)c1O)CCN2C` [Example 3, N-(4-Fluoro-2-(methylcarbamoyl)benzyl)-6-hydroxy-1-methyl-5-oxo-1,2,3,5-tetrahydroimidazo[1,2-a]pyrimidine-7-carboxamide], the IC50 is 10 to 30 nM.

In the case of `CC(C)N1CCn2c1nc(C(=O)NCc1ccc(F)cc1)c(O)c2=O` [Example 4, N-(4-Fluorobenzyl)-6-hydroxy-1-isopropyl-5-oxo-1,2,3,5-tetrahydroimidazo[1,2-a]pyrimidine-7-carboxamide], the IC50 is 10 to 30 nM. Turning to `Cc1cc(CNC(=O)c2nc3n(c(=O)c2O)CCN3C(C)C)ccc1F` [Example 5, N-(4-Fluoro-3-methylbenzyl)-6-hydroxy-1-isopropyl-5-oxo-1,2,3,5-tetrahydroimidazo[1,2-a]pyrimidine-7-carboxamide], the half-maximal inhibitory concentration (IC50) was 10 to 30 nM. To `CC(C)N1CCn2c1nc(C(=O)NCc1ccc(F)cc1-n1cncn1)c(O)c2=O` [Example 7, N-(4-Fluoro-2-(1H-1,2,4-triazol-1-yl)benzyl)-6-hydroxy-1-isopropyl-5-oxo-1,2,3,5-tetrahydroimidazo[1,2-a]pyrimidine-7-carboxamide] belongs 10 to 30 nM; to `CC(C)N1CCn2c1nc(C(=O)NCc1ccc(F)cc1S(=O)(=O)N(C)C)c(O)c2=O` [Example 8, N-(4-Fluoro-2-(N,N-dimethylsulfamoyl)benzyl)-6-hydroxy-1-isopropyl-5-oxo-1,2,3,5-tetrahydroimidazo[1,2-a]pyrimidine-7-carboxamide], 5 to 10 nM; to `Cc1ncn(-c2cc(F)ccc2CNC(=O)c2nc3n(c(=O)c2O)CCN3C(C)C)n1` [Example 9, N-(4-Fluoro-2-(3-methyl-1H-1,2,4-triazol-1-yl)benzyl)-6-hydroxy-1-isopropyl-5-oxo-1,2,3,5-tetrahydroimidazo[1,2-a]pyrimidine-7-carboxamide], 10 to 30 nM. The result for `CCCCN1CCn2c1nc(C(=O)NCc1ccc(F)cc1)c(O)c2=O` [Example 11, N-(4-Fluorobenzyl)-1-butyl-6-hydroxy-5-oxo-1,2,3,5-tetrahydroimidazo[1,2-a]pyrimidine-7-carboxamide] reads 5 to 10 nM; that for `CCCCN1CCn2c1nc(C(=O)NCc1ccc(F)c(C)c1)c(O)c2=O` [Example 12, N-(4-Fluoro-3-methylbenzyl)-1-butyl-6-hydroxy-5-oxo-1,2,3,5-tetrahydroimidazo[1,2-a]pyrimidine-7-carboxamide], 10 to 30 nM. To `CCCCN1CCn2c1nc(C(=O)NCc1ccc(F)cc1S(=O)(=O)N(C)C)c(O)c2=O` [Example 14, N-(4-Fluoro-2-(N,N-dimethylsulfamoyl)benzyl)-1-butyl-6-hydroxy-5-oxo-1,2,3,5-tetrahydroimidazo[1,2-a]pyrimidine-7-carboxamide] belongs 10 to 30 nM; to `Cc1cc(CNC(=O)c2nc3n(c(=O)c2O)CCN3Cc2ccccc2)ccc1F` [Example 17, N-(4-Fluoro-3-methylbenzyl)-1-benzyl-6-hydroxy-5-oxo-1,2,3,5-tetrahydroimidazo[1,2-a]pyrimidine-7-carboxamide], 10 to 30 nM; to `O=C(NCc1ccc(F)cc1)c1nc2n(c(=O)c1O)CCN2c1ccccc1` [Example 20, N-(4-Fluorobenzyl)-6-hydroxy-5-oxo-1-phenyl-1,2,3,5-tetrahydroimidazo[1,2-a]pyrimidine-7-carboxamide], 5 to 10 nM. Regarding `Cc1cc(CNC(=O)c2nc3n(c(=O)c2O)CCN3c2ccccc2)ccc1F` [Example 21, N-(4-Fluoro-3-methylbenzyl)-6-hydroxy-5-oxo-1-phenyl-1,2,3,5-tetrahydroimidazo[1,2-a]pyrimidine-7-carboxamide], the IC50 is 5 to 10 nM. The result for `CNC(=O)c1cc(F)ccc1CNC(=O)c1nc2n(c(=O)c1O)CCN2c1ccccc1` [Example 22, N-(4-Fluoro-2-(methylcarbamoyl)benzyl)-6-hydroxy-5-oxo-1-phenyl-1,2,3,5-tetrahydroimidazo[1,2-a]pyrimidine-7-carboxamide] reads 10 to 30 nM.
